Assays:
human TLR8 = target: T1, human TLR8 (Homo sapiens, UniProt Q9NR97); assay: HEK-Blue TLR8 SEAP reporter / QUANTI-Blue assay (Example 20); type: cell-based; conditions: HEK-Blue TLR8 cells, 24 hr incubation, different concentration
T1 construct: host or cells: HEK-Blue hTLR8 (HEK 293)
T1 sequence (Q9NR97 27-1041): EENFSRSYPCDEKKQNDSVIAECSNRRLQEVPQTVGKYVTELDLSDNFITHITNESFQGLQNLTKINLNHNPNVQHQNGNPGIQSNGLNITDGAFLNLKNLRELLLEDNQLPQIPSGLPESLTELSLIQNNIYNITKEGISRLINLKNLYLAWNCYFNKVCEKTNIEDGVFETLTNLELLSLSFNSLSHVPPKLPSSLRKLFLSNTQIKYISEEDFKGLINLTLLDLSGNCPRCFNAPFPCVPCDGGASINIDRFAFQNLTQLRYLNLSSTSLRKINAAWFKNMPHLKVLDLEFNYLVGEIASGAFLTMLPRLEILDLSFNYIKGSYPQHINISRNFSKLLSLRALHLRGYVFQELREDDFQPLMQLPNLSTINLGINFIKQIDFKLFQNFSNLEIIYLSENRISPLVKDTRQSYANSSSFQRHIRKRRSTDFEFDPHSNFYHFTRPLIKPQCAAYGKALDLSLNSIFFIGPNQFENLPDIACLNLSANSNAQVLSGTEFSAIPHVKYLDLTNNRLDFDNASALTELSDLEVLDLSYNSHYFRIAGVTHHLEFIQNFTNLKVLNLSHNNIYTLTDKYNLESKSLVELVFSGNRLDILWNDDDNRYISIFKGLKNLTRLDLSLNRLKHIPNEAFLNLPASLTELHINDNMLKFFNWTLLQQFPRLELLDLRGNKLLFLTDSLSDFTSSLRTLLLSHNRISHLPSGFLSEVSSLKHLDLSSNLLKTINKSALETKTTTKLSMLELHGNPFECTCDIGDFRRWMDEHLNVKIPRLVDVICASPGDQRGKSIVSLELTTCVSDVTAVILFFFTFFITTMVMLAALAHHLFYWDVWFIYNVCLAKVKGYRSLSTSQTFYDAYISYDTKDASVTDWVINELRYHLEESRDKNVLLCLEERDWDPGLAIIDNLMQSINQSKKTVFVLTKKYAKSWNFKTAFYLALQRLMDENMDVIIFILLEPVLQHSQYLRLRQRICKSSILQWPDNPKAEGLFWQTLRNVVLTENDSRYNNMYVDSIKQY
Method: (§1) In another experiment, in vitro biological activity of LNP-TR3 and to further confirm targeting of TLR7 and not targeting TLR8, the following experiment(s) were performed using a RAW-Blue™ (NF-κB/AP-1 inducible secreted embryonic alkaline phosphatase (SEAP) reporter gene) Cells and QUANTI-Blue™ (alkaline phosphatase assay), HEK-Blue™ (HEK 293 cell line expressing a TLR gene and an NF-κB/AP-1 inducible secreted embryonic alkaline phosphatase (SEAP) reporter gene), and hTLR8 cell line assay (InvivoGen, San Diego, CA). Briefly, despite Raw Blue™ (NF-κB/AP-1 inducible secreted embryonic alkaline phosphatase (SEAP) reporter gene) cells that express a variety of human Toll Like Receptors (TLRs) (including TLR7/8 but with the exception of TLR5) hTLR8 cells dominantly express the human TLR8. Additionally, an NE κB/AP-1-inducible SEAP (secreted embryonic alkaline phosphatase) reporter gene were used. Stimulation of these cells with TR3 lead to NF-κB activation through TLR8 which is measured by detection of SEAP levels.

TLRs in RAW-Blue cells = assay: RAW-Blue SEAP reporter / QUANTI-Blue assay (Example 20); type: cell-based, mouse; conditions: 24 hr incubation, different concentration
Method: as §1, with “Additionally, an NE κB/AP-1-inducible SEAP (secreted embryonic alkaline phosphatase) reporter gene were used.” left out
RAW-Blue™ (NF-κB/AP-1 inducible secreted embryonic alkaline phosphatase (SEAP) reporter gene) Cells were incubated with TR5, LNP-TR5, TR3, TR3+Stearic Acid, and LNP-TR3 at different concentration. After twenty-four (24) hr. incubation with the compounds, TLR stimulation was assessed by measuring the levels of SEAP optimal density (OD) using a QUANTI-Blue™ (alkaline phosphatase assay) assay. […]

TLR4 = target: T2, TLR4 (Mus musculus, UniProt Q9QUK6); assay: RAW-Blue SEAP reporter / QUANTI-Blue assay, TLR4 (Example 18); type: cell-based; conditions: RAW-Blue cells, 24 hr incubation, different concentration
T2 construct: host or cells: RAW-Blue cells
T2 sequence (Q9QUK6 26-835): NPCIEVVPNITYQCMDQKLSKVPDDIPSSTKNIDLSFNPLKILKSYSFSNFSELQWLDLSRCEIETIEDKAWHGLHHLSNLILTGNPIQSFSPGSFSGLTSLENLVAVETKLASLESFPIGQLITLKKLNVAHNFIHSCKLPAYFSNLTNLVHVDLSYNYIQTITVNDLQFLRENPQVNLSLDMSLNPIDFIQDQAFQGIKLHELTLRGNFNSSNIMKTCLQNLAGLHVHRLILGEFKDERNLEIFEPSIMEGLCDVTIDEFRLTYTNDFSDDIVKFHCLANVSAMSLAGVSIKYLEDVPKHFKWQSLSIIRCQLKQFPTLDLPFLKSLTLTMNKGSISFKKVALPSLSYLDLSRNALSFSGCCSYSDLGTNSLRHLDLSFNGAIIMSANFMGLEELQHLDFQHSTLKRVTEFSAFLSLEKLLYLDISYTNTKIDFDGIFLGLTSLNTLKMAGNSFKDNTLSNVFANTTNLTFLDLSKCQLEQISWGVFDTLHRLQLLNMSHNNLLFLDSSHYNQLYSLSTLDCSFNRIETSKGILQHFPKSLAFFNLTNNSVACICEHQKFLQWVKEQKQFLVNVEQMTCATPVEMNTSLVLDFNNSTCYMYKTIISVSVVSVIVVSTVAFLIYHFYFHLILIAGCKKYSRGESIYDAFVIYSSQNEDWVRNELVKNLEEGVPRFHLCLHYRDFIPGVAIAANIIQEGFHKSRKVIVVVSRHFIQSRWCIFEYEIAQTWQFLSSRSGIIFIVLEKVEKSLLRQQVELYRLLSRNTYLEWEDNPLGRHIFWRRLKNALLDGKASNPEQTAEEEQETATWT
T2 sequence (Q9JHF9 19-160 partner): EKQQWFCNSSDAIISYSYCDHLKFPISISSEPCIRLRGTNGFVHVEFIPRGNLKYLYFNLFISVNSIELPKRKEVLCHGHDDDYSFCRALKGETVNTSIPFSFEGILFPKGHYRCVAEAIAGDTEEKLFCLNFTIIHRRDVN
Method: In another experiment, in vitro biological activity of LNP-TR8 and to further confirm targeting of TLR4, the following experiment(s) were performed using a RAW-Blue™ (NF-[…]/AP-1 inducible secreted embryonic alkaline phosphatase (SEAP) reporter gene) Cells and QUANTI-Blue™ (alkaline phosphatase assay) assay (InvivoGen, San Diego, CA). Briefly, Raw Blue™ (NF-κB/AP-1 inducible secreted embryonic alkaline phosphatase (SEAP) reporter gene) cells that express human Toll Like Receptors (TLRs) (with the exception of TLR5) and an NF-κB/AP-1-inducible SEAP (secreted embryonic alkaline phosphatase) reporter gene were used. Stimulation of these cells with TR8 lead to NF-κB activation through TLR4 which is measured by detection of SEAP levels. RAW-Blue™ (NF-κB/AP-1 inducible secreted embryonicalkaline phosphatase (SEAP) reporter gene) Cells were incubated with TR8 and LNP-TR8 at different concentration. After twenty-four (24) hr. incubation with the compounds, TLR stimulation was assessed by measuring the levels of SEAP optimal density (OD) using a QUANTI-Blue™ (alkaline phosphatase assay) assay. ODs were normalized to the control (untreated) group. […] (See, FIG. 26).

TLR stimulation (SEAP OD normalized to untreated control) (TLR4) | Compound | TLR stimulation (SEAP OD normalized to untreated control) (human TLR8) | TLR stimulation (SEAP OD normalized to untreated control) (TLRs in RAW-Blue cells)
– | CCCCCCCCCCCCCCCCCCS(=O)(=O)NCCCCn1c(CC)nc2c(N)nc3ccccc3c21 [TR3+Stearic Acid] | only TR5 in prodrug and liposome form were able to stimulate the cells | stimulated TLRs
could cause stimulation of TLR4 | Monophosphoryl Lipid A (Synthetic) [TR8] | – | –
